Tests used:
[1] = test system: glial cells of astrocyte type and/or precursors thereof; test: Cell proliferation by tritiated thymidine accumulation in astrocyte-enriched cultures (FCS mitogens); type: cell-based, rat; set-up: key to Reduction in proliferation: an absence of response is represented by a “−” sign, synonymous with non-efficacy with respect to cell proliferation; +: a favorable response, synonymous with inhibition of the proliferation of glial cells of astrocyte type; ++: a favorable response, synonymous with inhibition of the proliferation of glial cells of astrocyte type; +++: a favorable response, synonymous with inhibition of the proliferation of glial cells of astrocyte type; ++++=absence of proliferation
Experimental: Cultures are prepared from total brain of embryos, taken from gestating Wistar female rats on day 15.5 of gestation. The method for producing the cultures enriched with astrocytes (cells immunopositive for glial fibrillary acidic protein or GFAP) comprises obtaining a homogeneous cell suspension of the entire embryonic anterior brain by mechanical dissociation, i.e. non-enzymatic dissociation, using Leibovitz L15 medium (Sigma Aldrich). […] The medium used is Minimum Essential Medium (MEM), containing 10% of fetal calf serum (FCS, Biowest) and 10% of horse serum (HS, Sigma Aldrich), 1 g/l of glucose, 2 mM of L-glutamine, 1 mM of sodium pyruvate, non-essential amino acids, and a penicillin/streptomycin cocktail. When confluence is reached (i.e. after 7-10 days of culture), the adherent cells (>90% of astrocytes) are placed in PBS, then detached by tapping the flasks. […] The astrocytes are then cultured in 48-well multiwell plates (Nunc). Approximately 30 000 cells are applied per culture well. The cells are placed in the presence of the same medium as previously, but with a serum supplementation, reduced to 2%. No change of culture medium is carried out throughout the culture period. The proliferation is triggered and maintained by the presence of FCS in the culture medium. The NMDA receptor blocker, memantine (RD Systems), is added to the cultures just before exposure to the xenon. Dibutyryl cyclic AMP (dbcAMP), a lipophilic form of cAMP used as a reference anti-proliferative molecule (Mourlevat et al., Mol Pharmacol, 2003), is added at the same time as the memantine. Once the pharmacological treatments have been carried out, the multiwell dish plates containing the cells in culture and the plate used to humidify the internal compartment of the chamber are placed on a metal base which receives the Plexiglas incubation chamber. The two parts (base and Plexiglas chamber) are butt-joined together by screwing. A gas mixture of interest comprising (% by volume): 20% of O2, 5% of CO2 and 75% of the gas tested is then injected into the incubation chamber, with open inlet and outlet valves, while at the same time controlling the output flow rate by means of a flow meter. The gases tested are nitrogen and xenon. The reference output flow rate, set for air at 10 liters/min, is corrected according to the density of the mixture used. When the CO2 measurement reaches 5% at the outlet, the injection of the gas mixture is stopped and the chamber is made totally airtight by closing the inlet and outlet valves. The exposure chamber is then placed in an enclosure at 37° C. throughout the experimental protocol. After the […] been broken by opening the inlet and outlet valves and unscrewing the chamber from its base, the cultures are placed in the presence of PBS containing 5 mM of glucose and incubated for 2 h with tritiated thymidine (Perkin, 70-90 Ci/mmol; 0.5 μCi/well) in order to analyze the cell proliferation according to a method previously described by Rousseau and colleagues (Mol Pharmacol, 2013). […] These cultures were maintained, as soon as they were placed in culture and up to D3 in vitro, in an atmosphere containing 75% of nitrogen (N2 75) or 75% of xenon (Xe 75), in the presence or absence of memantine (MEM), […] analog of cAMP, dibutyryl-cAMP, used as reference anti-proliferative molecule. At the end of the treatments, the cultures are recovered for a cell proliferation measurement, using tritiated thymidine incorporation as evaluation index. The results are expressed in % (±SEM, n=6) of the mean values of the cultures maintained under 75% of nitrogen (control condition).

[2] = test system: glial cells of astrocyte type and/or precursors thereof in the presence of neuronal cells; test: Cell proliferation by tritiated thymidine incorporation in neuron-glia mixed (mesencephalon) cultures; type: cell-based, rat; set-up: key to Inhibition of proliferation: an absence of response is represented by a “−” sign, synonymous with non-efficacy with respect to cell proliferation; +: a favorable response, synonymous with inhibition of the proliferation of glial cells of astrocyte type; ++: a favorable response, synonymous with inhibition of the proliferation of glial cells of astrocyte type; +++: a favorable response, synonymous with inhibition of the proliferation of glial cells of astrocyte type; ++++=absence of proliferation
Experimental: Cultures are prepared from mesencephalon of rat embryos taken from female Wistar rats, on day 15.5 of gestation. The use of the mesencephalon cultures comprises obtaining a homogeneous cell suspension by mechanical dissociation, i.e. non-enzymatic dissociation, of the embryonic tissue, using Leibovitz L15 medium (Sigma Aldrich). Aliquots of this suspension are added to Nunc 48-well multiwell plates, which have been precoated with a thin layer of polyethyleneimine (1 mg/ml, borate buffer, pH 8.3) so as to enable adhesion of the neuronal cells (cf. Toulorge et al., Faseb J, 2011). The seeding density is between approximately 80 000 and 100 000 cells/culture well. The mesencephalon cultures are maintained in MEM culture medium, containing 1 g/l of glucose, 2 mM of L-glutamine, 1 mM of sodium pyruvate, non-essential amino acids and a penicillin/streptomycin cocktail. During the first week of culture, this medium also contains 10% of fetal calf serum (FCS, Biowest) and 10% of horse serum (HS, Sigma Aldrich), but from the second week, the concentrations of the two sera are reduced (Gao et al., J Neurosci, 2002). Up to the time when the effects of the gases of interest are evaluated, the cultures are placed in a conventional enclosure thermostatically controlled at 37° C., in which the CO2 is maintained at 5% by volume and wherein the atmosphere is saturated with water. The glial proliferation process occurs as soon as the cells are placed in culture. It is analyzed during the second week in vitro when the serum supplementation is reduced to 2% or in some cases to 0.1%. After reduction of the FCS and HS concentrations on D7, the NMDA receptor blocker, memantine, is added to the cultures before placing them under a controlled gaseous atmosphere. Once the pharmacological treatments have been carried out, the multiwell plates containing the cells in culture and the plate used for humidifying the internal compartment of the chamber are placed on a metal base which receives the Plexiglas incubation chamber. The two parts (base and Plexiglas chamber) are butt-joined together by screwing. A gas mixture of interest comprising (% by volume): 20% of O2, 5% of CO2 and 75% of gas tested is then injected into the incubation chamber, with open inlet and outlet valves, while at the same time controlling the output flow rate by means of a flow meter. The gases tested are nitrogen and xenon. The reference output flow rate, set for air at 10 liters/min, is corrected according to the density of the mixture used. When the CO2 measurement reaches 5% at the outlet, the injection of the gas mixture is stopped and the chamber is made totally airtight by closing the inlet and outlet valves. The exposure chamber is then placed in an enclosure at 37° C. for the 7 days of the experimental protocol. On D14, after the […] been broken by opening the inlet and outlet valves and unscrewing the incubation chamber from its base, the cultures are subjected to the tritiated-thymidine proliferation test according to the protocol described in example 1, using as a basis the technique described by Rousseau and colleagues (Mol. Pharmacol., 2013). […] Some experiments were also carried out by reducing the concentrations of the 2 types of serum to 0.1%, while maintaining the cells under a nitrogen-enriched or xenon-enriched atmosphere. The cultures are then recovered for a cell proliferation measurement using tritiated thymidine. […]

For `CC12CC3CC(C)(C1)CC(N)(C3)C2` [Memantine, memantine], the anti-proliferative effect ([1]; 30 pM (so in the source), nitrogen-enriched atmosphere) was −39.3%, the anti-proliferative effect ([1]; 30 pM (so in the source), xenon-enriched atmosphere) was −75.2% and the Reduction in proliferation ([1]; 1 μM, 75% N2, D0-D3) was “−”. For the same compound, the Reduction in proliferation ([1]; 1 μM, 75% Xe, D0-D3) was “−”, the Reduction in proliferation ([1]; 3 μM, 75% N2, D0-D3) was “−” and the Reduction in proliferation ([1]; 3 μM, 75% Xe, D0-D3) was “−”. The Reduction in proliferation ([1]; 10 μM, 75% N2, D0-D3) was “−”, the Reduction in proliferation ([1]; 10 μM, 75% Xe, D0-D3) was “++” and the anti-proliferative effect ([1]; 10 μM, xenon-enriched atmosphere, vs cultures under 75% nitrogen) was −42.5%. For the same compound, the Reduction in proliferation ([1]; 30 μM, 75% N2, D0-D3) was “++”, the Reduction in proliferation ([1]; 30 μM, 75% Xe, D0-D3) was “+++” and the “anti-proliferative effect” value ([1]; nitrogen-enriched atmosphere, up to 10 μM) was “no anti-proliferative effect”. The Inhibition of proliferation ([2]; 10 μM, 75% N2, sera at 2%, D7-D14) was “−” and the “impact on the proliferation” value ([2]; memantine applied under nitrogen) was “no impact on the proliferation”.

For `[Xe]` [Xe, xenon], the Reduction in proliferation ([1]; 75% Xe (20% O2 + 5% CO2), no drug, D0-D3 (3 days)) was “−”, the “anti-proliferative effect” value ([1]; xenon replaces nitrogen (75 vol %), no drug) was “no significant anti-proliferative effect” and the Inhibition of proliferation ([2]; 75% Xe, sera at 0.1%, D7-D14) was “+++”. The Inhibition of proliferation ([2]; 75% Xe, sera at 2%, D7-D14 (7 days)) was “−” and the “impact on the proliferation” value ([2]; xenon-enriched atmosphere, no memantine) was “no impact on the proliferation”.

With `CCCC(=O)Nc1ncnc2c1ncn2[C@@H]1O[C@@H]2COP(=O)(O)O[C@H]2[C@H]1OC(=O)CCC` [dbcAMP, Dibutyryl cyclic AMP] the Reduction in proliferation ([1]; 1 mM, 75% N2, D0-D3) was “++”, the Reduction in proliferation ([1]; 1 mM, 75% Xe, D0-D3) was “++” and the “proliferation in the presence of serum mitogens” value ([1]; atmosphere containing 75 vol % of nitrogen) was “significantly reduced”.

From patent US20170189445A1, “XENON ASSOCIATED WITH AN NMDA RECEPTOR ANTAGONIST FOR CONTROLLING TUMOR PROLIFERATION IN THE CENTRAL NERVOUS SYSTEM” (L'Air Liquide, Société Anonyme pour I'Etude et …, priority 2014, published 2017)
